Experimental data published in ChEMBL document CHEMBL3785084, “Rational modification of the lead molecule: Enhancement in the anticancer and dihydrofolate reductase inhibitory activity” (Bioorg Med Chem Lett, 2016).
Activity calls are given as the source filed them. The calls are words filed in the database; no cut-off is given here.

Legend:
[1] = cells; settings: Homo sapiens, SF-295, 48 h; for CC50: read-out: LC50
[2] = tested on: M14; assay: cells; settings: Homo sapiens, M14, 48 h; for CC50: read-out: LC50
[3] = cells; settings: Homo sapiens, LOX IMVI, 48 h; for CC50: read-out: LC50
[4] = Cytotoxicity against human HOP62 cells assessed as cell growth at 10^-5 M after 48 hrs by sulforhodamine B assay; format: functional; settings: HOP-62, 48 h, read-out: Activity
[5] = tested on: KM12; assay: cells; settings: Homo sapiens, KM12, 48 h
[6] = Cytotoxicity against human COLO205 cells assessed as cell growth at 10^-5 M after 48 hrs by sulforhodamine B assay; format: functional; settings: COLO 205, 48 h, read-out: Activity
[7] = cells; settings: Homo sapiens, SNB-19, 48 h; for CC50: read-out: LC50
[8] = tested on: U-251; assay: Cytotoxicity against human U251 cells assessed as cell growth at 10^-5 M after 48 hrs by sulforhodamine B assay; format: functional; settings: U-251, 48 h, read-out: Activity
[9] = tested on: SK-MEL-2; assay: Cytotoxicity against human SK-MEL-2 cells after 48 hrs by sulforhodamine B assay; format: functional; settings: SK-MEL-2, 48 h
[10] = molecular target: Dihydrofolate reductase (Homo sapiens) (UniProt P00374); settings: 20 to 30 uM
[11] = Cytotoxicity against human BT549 cells after 48 hrs by sulforhodamine B assay; format: functional; settings: BT-549, 48 h
[12] = molecular target: Dihydrofolate reductase (Homo sapiens) (UniProt P00374)

| SMILES | GI50 [1] | TGI [1] | CC50 [1] | GI50 [2] | TGI [2] | CC50 [2] | GI50 [3] | TGI [3] | CC50 [3] | GI50 [5] | TGI [5] | GI50 [7] | TGI [7] | CC50 [7] | further results |
| --- | --- | --- | --- | --- | --- | --- | --- | --- | --- | --- | --- | --- | --- | --- | --- |
| COc1cc(/C=C2\C(=O)Nc3ccccc32)cc(OC)c1O | 3 µM | 30.9 µM | > 100 µM | 2.7 µM | 10.9 µM | 67.6 µM | 4 µM | 16.2 µM | 44.6 µM | 2.5 µM | 11.5 µM | 4.5 µM | 54.9 µM | > 100 µM | growth at 10 µM [4]: 64.3%; CC50 ([5]; read-out: LC50): 36.3 µM; growth at 10 µM [6]: 112%; growth at 10 µM [8]: 47% |
| O=C1Nc2ccccc2/C1=C/c1cn(CC(O)Cn2cc(/C=C3\C(=O)Nc4ccccc43)c3ccccc32)c2ccccc12 (centres undefined) | 1.6 µM | 3.2 µM | 6.4 µM | 1.3 µM | 2.8 µM | 6.02 µM | 0.32 µM | 1.3 µM | 4.1 µM | 1.4 µM | 3.3 µM | 1.2 µM | 3.8 µM | > 100 µM | GI50 [9]: 1.7 µM; TGI [9]: 3.4 µM; CC50 ([9]; read-out: LC50 (the source's name)): 6.9 µM; inhibition [10]: Active; GI50 [11]: 1.7 µM; TGI [11]: 3.6 µM; Ka [12]: 1.38 ×10⁵ /M |
